Reference: patent US9464077B2, “Nitrogen-containing aromatic heterocyclic compound” (Astellas Pharma Inc., priority 2012, dated 2016)

Tests used:
[1] = system: bladder cancer patient-derived cell line RT4; assay: Anchorage-independent cell growth inhibition, spheroid plate; assay type: cell-based; conditions: Homo sapiens, 96 h, 4 days, read-out: growth inhibition rate RT4
[2] = system: FGFR3_S249C/NIH3T3 cells; assay: Growth assay of cells with forced expression of mutant FGFR3; assay type: cell-based; conditions: Mus musculus, NIH3T3, 120 h; 5 days after addition, CellTiter-Glo; read-out: IC50 (growth inhibition)
Protocol: FGFR3_S249C/NIH3T3 cells were added to a 96-well spheroid plate (U bottom) at a concentration of 3000 cells/well/90 μL, and the compound solution (10 μL) was added thereto on the next day (final DMSO concentration: 0.1%). The compound solution was prepared by serially diluting the compound with DMSO at a 3-fold common ratio (9 portions and DMSO only) from the maximum concentration of 10 mM and then diluted 100-fold with a culture medium (D-MEM, 10% FBS). 5 days after the addition of the compound, the growth inhibition caused by the compound was evaluated by Promega (G7573) CellTiter-Glo™ Luminescent Cell Viability Assay.

`COc1cc(OC)c(F)c(COc2cnc(Nc3ccc(N4CCC(NCCO)CC4)cc3)nc2)c1F` [Example 299] showed an inhibition at 0.001 µM ([1]; 1 nM) of 8%, an inhibition at 0.01 µM ([1]; 10 nM) of 45% and an inhibition at 0.1 µM ([1]; 100 nM) of 63%. It also gave an IC50 [2] of 10 nM.
